# Measured values: patent publication US10399940B2, “Substituted pyrrolidines and methods of use” (AbbVie S.à.r.l., priority 2016, dated 2019)
# Like-named read-outs stand apart in the source and are kept apart here.
# Molecular target: T1, F508delCFTR (Homo sapiens, UniProt P13569, DEL508-508)
# T1 construct: expressed in transfected cells; host or cells: CFBE41o- (human lung derived epithelial cell line), doxycycline-inducible expression
# Assay: Cell Surface Expression-Horse Radish Peroxidase (CSE-HRP) assay
# Assay type: cell-based
# Conditions: CFBE41o-F508delCFTR-HRP cells; for Maximum % activity (with co-corrector): with co-corrector (2 μM); for Maximum % activity (with co-corrector) / Maximum % activity (without co-corrector): normalized to on-plate positive control, highest concentration 20 μM
# How it was run: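 Surface F508delCFTR-HRP was read by luminol luminescence after 18–24 h compound exposure at 33 °C, without or with 2 μM co-corrector. Doses were eight 3-fold steps from 20 μM, in doxycycline-induced (0.5 μg/mL, 72 h) CFBE41o- cells. % activity was scaled to the on-plate 2 μM positive control minus DMSO; EC50 came from a variable-slope sigmoid fit.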
# [1] = test compound without co-corrector, 18-24 hours at 33° C., read-out: EC50 (without co-corrector)
# [2] = with co-corrector (2 μM of 3-[(2R,4R)-4-({[1-(2,2-difluoro-1,3-benzodioxol-5-yl)cyclopropyl]carbonyl}amino)-7-methoxy-3,4-dihydro-2H-chromen-2-yl]benzoic acid), read-out: EC50 (with co-corrector)
# T1 sequence (P13569 with tags, fused parts or gaps DEL508-508): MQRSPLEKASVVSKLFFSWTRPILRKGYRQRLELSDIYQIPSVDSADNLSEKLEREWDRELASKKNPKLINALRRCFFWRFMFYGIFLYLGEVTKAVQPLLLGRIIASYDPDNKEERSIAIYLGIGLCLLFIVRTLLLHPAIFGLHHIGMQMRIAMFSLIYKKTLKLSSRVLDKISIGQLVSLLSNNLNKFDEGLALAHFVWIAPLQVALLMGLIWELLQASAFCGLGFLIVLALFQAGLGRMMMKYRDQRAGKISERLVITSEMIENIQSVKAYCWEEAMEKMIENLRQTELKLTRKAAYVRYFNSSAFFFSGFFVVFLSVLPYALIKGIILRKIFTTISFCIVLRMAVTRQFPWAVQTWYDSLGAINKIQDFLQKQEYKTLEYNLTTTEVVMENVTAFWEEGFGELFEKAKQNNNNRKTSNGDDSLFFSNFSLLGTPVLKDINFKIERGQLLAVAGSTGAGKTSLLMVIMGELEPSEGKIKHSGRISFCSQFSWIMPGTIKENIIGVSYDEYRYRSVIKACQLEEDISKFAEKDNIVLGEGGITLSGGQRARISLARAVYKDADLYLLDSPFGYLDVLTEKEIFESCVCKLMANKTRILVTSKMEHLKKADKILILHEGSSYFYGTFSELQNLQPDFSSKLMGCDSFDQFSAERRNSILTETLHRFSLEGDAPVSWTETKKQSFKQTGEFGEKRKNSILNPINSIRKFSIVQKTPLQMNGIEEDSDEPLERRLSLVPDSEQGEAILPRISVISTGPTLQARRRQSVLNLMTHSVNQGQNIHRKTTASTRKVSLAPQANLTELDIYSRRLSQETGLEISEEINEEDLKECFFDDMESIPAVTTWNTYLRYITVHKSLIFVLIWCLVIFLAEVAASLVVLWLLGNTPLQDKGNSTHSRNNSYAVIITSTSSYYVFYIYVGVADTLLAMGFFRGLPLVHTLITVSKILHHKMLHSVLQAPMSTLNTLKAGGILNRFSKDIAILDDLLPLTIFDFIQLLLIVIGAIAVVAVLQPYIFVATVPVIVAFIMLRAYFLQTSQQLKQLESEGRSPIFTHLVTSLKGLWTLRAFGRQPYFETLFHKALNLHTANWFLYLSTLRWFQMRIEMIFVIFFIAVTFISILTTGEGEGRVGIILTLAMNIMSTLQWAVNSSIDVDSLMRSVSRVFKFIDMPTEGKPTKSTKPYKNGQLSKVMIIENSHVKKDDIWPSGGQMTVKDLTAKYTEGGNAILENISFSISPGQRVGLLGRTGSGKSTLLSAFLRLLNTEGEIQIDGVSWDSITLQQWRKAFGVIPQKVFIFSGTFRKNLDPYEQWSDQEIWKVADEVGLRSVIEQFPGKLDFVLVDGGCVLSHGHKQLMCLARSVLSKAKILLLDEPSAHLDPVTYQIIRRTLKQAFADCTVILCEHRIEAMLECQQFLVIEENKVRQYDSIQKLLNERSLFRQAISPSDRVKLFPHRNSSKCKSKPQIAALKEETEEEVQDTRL
EC50 [1] [µM],EC50 [2] [µM],Maximum % activity (with co-corrector),Maximum % activity (without co-corrector),Compound
1 to 10,1 to 10,++ (≥150 and <350),+ (<100),"COc1ncc(C(F)(F)F)cc1CO[C@H]1[C@H](C(C)(C)C)[C@@H](C(=O)O)N(C(=O)[C@H]2CCOC2)[C@H]1c1ccccc1C(C)C [Example 109, (2S,3R,4S,5S)-3-tert-butyl-4-{[2-methoxy-5-(trifluoromethyl)pyridin-3-yl]methoxy}-1-[(3S)-oxolane-3-carbonyl]-5-[2-(propan-2-yl)phenyl]pyrrolidine-2-carboxylic acid]"
1 to 10,1 to 10,+++ (≥350),++ (≥100 and <200),"COc1ncc(C(F)(F)F)cc1CO[C@H]1[C@H](C(C)(C)C)[C@@H](C(=O)O)N(C(=O)C2CCOCC2)[C@H]1c1ccccc1C(C)C [Example 110, (2S,3R,4S,5S)-3-tert-butyl-4-{[2-methoxy-5-(trifluoromethyl)pyridin-3-yl]methoxy}-1-(oxane-4-carbonyl)-5-[2-(propan-2-yl)phenyl]pyrrolidine-2-carboxylic acid]"
1 to 10,1 to 10,+++ (≥350),++ (≥100 and <200),"COc1ncc(C(F)(F)F)cc1CO[C@H]1[C@H](C(C)(C)C)[C@@H](C(=O)O)N(C(=O)[C@@H]2CCOC2)[C@H]1c1ccccc1C(C)C [Example 111, (2S,3R,4S,5S)-3-tert-butyl-4-{[2-methoxy-5-(trifluoromethyl)pyridin-3-yl]methoxy}-1-[(3R)-oxolane-3-carbonyl]-5-[2-(propan-2-yl)phenyl]pyrrolidine-2-carboxylic acid]"
1 to 10,< 1,+++ (≥350),++ (≥100 and <200),"COc1ncc(C(F)(F)F)cc1CO[C@H]1[C@H](C(C)(C)C)[C@@H](C(=O)O)N(C(=O)[C@@H]2CCCO2)[C@H]1c1ccccc1C1CC1 [Example 112, (2S,3R,4S,5S)-3-tert-butyl-5-(2-cyclopropylphenyl)-4-{[2-methoxy-5-(trifluoromethyl)pyridin-3-yl]methoxy}-1-[(2S)-oxolane-2-carbonyl]pyrrolidine-2-carboxylic acid]"
1 to 10,1 to 10,++ (≥150 and <350),+ (<100),"COc1ccc(C(F)(F)F)cc1CO[C@H]1[C@H](C(C)(C)C)[C@@H](C(=O)O)N(C(=O)[C@@H]2CCCO2)[C@H]1c1cccnc1C(F)(F)F [Example 113, (2S,3R,4S,5S)-3-tert-butyl-4-{[2-methoxy-5-(trifluoromethyl)phenyl]methoxy}-1-[(2S)-oxolane-2-carbonyl]-5-[2-(trifluoromethyl)pyridin-3-yl]pyrrolidine-2-carboxylic acid]"
> 10,> 10,+ (<150),+ (<100),"COc1ccc(C(F)(F)F)cc1CO[C@@H]1[C@H](C(C)(C)C)[C@@H](C(=O)O)N(C(=O)[C@@H]2CCCO2)[C@H]1c1cccnc1C(F)(F)F [Example 114, (2S,3R,4R,5S)-3-tert-butyl-4-{[2-methoxy-5-(trifluoromethyl)phenyl]methoxy}-1-[(2S)-oxolane-2-carbonyl]-5-[2-(trifluoromethyl)pyridin-3-yl]pyrrolidine-2-carboxylic acid]"
1 to 10,< 1,+++ (≥350),++ (≥100 and <200),"COc1ncc(C(F)(F)F)cc1CO[C@H]1[C@H](C(C)(C)C)[C@@H](C(=O)O)N(C(=O)[C@@H]2CCCO2)[C@H]1c1ccccc1Cl [Example 115, (2S,3R,4S,5S)-3-tert-butyl-5-(2-chlorophenyl)-4-{[2-methoxy-5-(trifluoromethyl)pyridin-3-yl]methoxy}-1-[(2S)-oxolane-2-carbonyl]pyrrolidine-2-carboxylic acid]"
